From patent US20070049593A1 (priority 2004, published 2007) come the findings set out here.

Structures can show the parent of a compound that is named as a salt.

The test deals with T1, HCV polymerase (Hepatitis C virus genotype 1b, UniProt P26663).
T1 construct: a region encoding NS5B (J Virol 1991 March, 65(3), 1105-13, 544 amino acids after deletion of 47 amino acids on the C-terminal); 6xHis (C); made in house; host or cells: Escherichia coli
T1 sequence (P26663 2420-2963): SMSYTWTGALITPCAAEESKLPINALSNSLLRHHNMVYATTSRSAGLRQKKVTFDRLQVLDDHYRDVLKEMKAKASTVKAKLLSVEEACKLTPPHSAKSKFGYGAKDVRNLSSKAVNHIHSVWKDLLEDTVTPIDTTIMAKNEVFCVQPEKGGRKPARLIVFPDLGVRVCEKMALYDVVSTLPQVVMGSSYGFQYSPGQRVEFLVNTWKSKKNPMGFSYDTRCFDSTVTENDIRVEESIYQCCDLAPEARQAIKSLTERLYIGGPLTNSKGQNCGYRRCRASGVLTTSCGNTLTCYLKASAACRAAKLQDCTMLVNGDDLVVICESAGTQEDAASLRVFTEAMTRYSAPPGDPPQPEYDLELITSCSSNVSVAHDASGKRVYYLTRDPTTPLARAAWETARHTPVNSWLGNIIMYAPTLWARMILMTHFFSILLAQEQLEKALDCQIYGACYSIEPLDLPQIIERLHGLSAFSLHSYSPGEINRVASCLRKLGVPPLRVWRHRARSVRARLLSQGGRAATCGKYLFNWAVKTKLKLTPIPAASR
In words: biochemical. Details: species or system HCV BK strain. Summed up:
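Recombinant HCV BK-strain NS5B (C-terminal 47 aa deleted, His6-tagged, E. coli), 0.5 μg/ml, run with 5 μg/ml in vitro-transcribed RNA template (polyU/3′X), ATP/GTP/CTP 50 μM, UTP 2 μM plus [3H]UTP, pH 7.5, 25° C, 90 min. TCA-precipitated RNA counted by scintillation; IC50 from activity with vs without compound.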
For the molecule `CC(C)(C)OC(=O)N[C@H](COc1ccc2c(c1)OCCn1c-2c(C2CCCCC2)c2ccc(C(=O)O)cc21)Cc1ccccc1` [Example 2-41, 3-((S)-2-tert-butoxycarbonylamino-3-phenylpropoxy)-12-cyclohexyl-6,7-dihydro-5-oxa-7a-azadibenzo[a,e]azulene-9-carboxylic acid], the half-maximal inhibitory concentration (IC50) (in general, the concentration needed to halve the response being measured) was below 100 nM. As for `O=C(O)c1ccc2c(C3CCCCC3)c3n(c2c1)CCOc1cc(O[C@H]2CCNC2)ccc1-3` [Example 2-42, 12-cyclohexyl-3-((S)-pyrrolidin-3-yloxy)-6,7-dihydro-5-oxa-7a-azadibenzo[a,e]azulene-9-carboxylic acid monohydrochloride], the figure is below 100 nM. The molecule `CC(C)[C@@H](COc1ccc2c(c1)OCCn1c-2c(C2CCCCC2)c2ccc(C(=O)O)cc21)NC(=O)OC(C)(C)C` [Example 2-43, 3-((S)-2-tert-butoxycarbonylamino-3-methylbutoxy)-12-cyclohexyl-6,7-dihydro-5-oxa-7a-azadibenzo[a,e]azulene-9-carboxylic acid] came in with a 50% inhibitory concentration (IC50) below 100 nM.

`CS(=O)(=O)N1CCCC(Oc2ccc3c(c2)OCCn2c-3c(C3CCCCC3)c3ccc(C(=O)O)cc32)C1` (centres unmarked) [Example 2-44, 12-cyclohexyl-3-(1-methanesulfonylpiperidin-3-yloxy)-6,7-dihydro-5-oxa-7a-azadibenzo[a,e]azulene-9-carboxylic acid] returned an IC50 below 100 nM. As for `CN1CCCCC1COc1ccc2c(c1)OCCn1c-2c(C2CCCCC2)c2ccc(C(=O)O)cc21` (centres unmarked) [Example 2-45, 12-cyclohexyl-3-(1-methylpiperidin-2-ylmethoxy)-6,7-dihydro-5-oxa-7a-azadibenzo[a,e]azulene-9-carboxylic acid], the figure is below 100 nM. The molecule `O=C(O)c1ccc2c(C3CCCCC3)c3n(c2c1)CCOc1cc(OC2CCCNC2)ccc1-3` (centres unmarked) [Example 2-46, 12-cyclohexyl-3-(piperidin-3-yloxy)-6,7-dihydro-5-oxa-7a-azadibenzo[a,e]azulene-9-carboxylic acid monohydrochloride] registered a concentration for half-maximal inhibition (IC50) below 100 nM. Next, `NC(=O)c1ccc2c(C3CCCCC3)c3n(c2c1)CCOc1cc(OCc2cc(N4CCCC4=O)ccc2N2CCOCC2)ccc1-3` [Example 2-47, 12-cyclohexyl-3-[2-(morpholin-4-yl)-5-(2-oxopyrrolidin-1-yl)benzyloxy]-6,7-dihydro-5-oxa-7a-azadibenzo[a,e]azulene-9-carboxamide monohydrochloride]: below 100 nM; `CS(=O)(=O)c1ccc(N2CCOCC2)c(COc2ccc3c(c2)OCCn2c-3c(C3CCCCC3)c3ccc(C(N)=O)cc32)c1` [Example 2-48, 12-cyclohexyl-3-[5-methanesulfonyl-2-(morpholin-4-yl)benzyloxy]-6,7-dihydro-5-oxa-7a-azadibenzo[a,e]azulene-9-carboxamide monohydrochloride]: below 100 nM; `COC(=O)N[C@H](COc1ccc2c(c1)OCCn1c-2c(C2CCCCC2)c2ccc(C(=O)O)cc21)Cc1ccccc1` [Example 2-49, 12-cyclohexyl-3-((S)-2-methoxycarbonylamino-3-phenylpropoxy)-6,7-dihydro-5-oxa-7a-azadibenzo[a,e]azulene-9-carboxylic acid]: below 100 nM. Next, `COC(=O)N1CC[C@H](Oc2ccc3c(c2)OCCn2c-3c(C3CCCCC3)c3ccc(C(=O)O)cc32)C1` [Example 2-50, 12-cyclohexyl-3-((S)-1-methoxycarbonylpyrrolidin-3-yloxy)-6,7-dihydro-5-oxa-7a-azadibenzo[a,e]azulene-9-carboxylic acid]: below 100 nM; `CC(C)[C@@H](COc1ccc2c(c1)OCCn1c-2c(C2CCCCC2)c2ccc(C(=O)O)cc21)NS(C)(=O)=O` [Example 2-51, 12-cyclohexyl-3-((S)-2-methanesulfonylamino-3-methylbutoxy)-6,7-dihydro-5-oxa-7a-azadibenzo[a,e]azulene-9-carboxylic acid]: below 100 nM.
